Data taken from patent US8686043B2, “Heterocyclic sulfonamides, uses and pharmaceutical compositions thereof” (Pfizer Inc., priority 2009, dated 2014).

System: AMPA receptors
Assay: AMPA ES Cell FLIPR Screen (AMPA Potentiator Assay)
Assay type: cell-based, murine
Conditions: for EC50: ES cell-derived neurons, FLIPR (Fluo-4), 32 μM AMPA challenge, values marked * are the geometric mean of 2-5 EC50 determinations
Source text: Growth and Maintenance of ES Cells
Murine ES cell line E14, with a targeted mutation in the Sox1 gene and a neuroectodermal marker that offers G418 resistance when the Sox1 gene is expressed (Stem Cell Sciences, West Mains Road, Edinburgh, Scotland EH9 3JQ) may be used in all experiments. ES cells may be maintained undifferentiated as previously described (Methods For The Isolation And Maintenance Of Murine Embryonic Stem Cells; Roach-M-L, McNeish-J-D., Methods in Molecular Biology, 185, 1-16 (2002)). Briefly, ES cells may be grown in stem cell culture media comprising a base medium of Knockout™ D-MEM (Invitrogen 5791 Van Allen Way, Carlsbad, Calif. USA 92008), supplemented with 15% ES qualified Fetal Bovine Serum (FBS) (Invitrogen), 0.2 mM L-Glutamine (Invitrogen), 0.1 mM MEM non-essential amino acids (Invitrogen), 30 μg/ml Gentamicin […] (Invitrogen), 1000 U/ml ESGRO™ (CHEMICON International, Inc., 28820 Single Oak Drive, Temecula, Calif. 92590) and 0.1 mM 2-mercaptoethanol (Sigma, 3050 Spruce St., St. Louis, Mo. 63103). ES cells may then be plated on gelatin-coated dishes (BD Biosciences, 2350 Qume Drive, San Jose, Calif. 95131), wherein the media is changed daily and the cells dissociated with 0.05% Trypsin EDTA (Invitrogen) every other day.
Neural In Vitro Differentiation of ES Cells
Embryoid Body Formation: Prior to embryoid body (EB) formation the ES cells may be weaned from FBS onto Knockout Serum Replacement™ (KSR) (Invitrogen). To form EBs, ES cells may be dissociated into a single cell suspension, then 3×10^6 cells plated in bacteriology dishes (Nunc 4014) and grown as a suspension culture in NeuroEB-I medium that consisted of Knockout™ D-MEM (Invitrogen), supplemented with 10% KSR (Invitrogen), 0.2 mM L-Glutamine (Invitrogen), 0.1 mM MEM non-essential amino acids (Invitrogen), 30 μg/ml Gentamicin (Invitrogen), 1000 U/ml ESGRO™ (CHEMICON International, Inc.), 0.1 mM 2-mercaptoethanol (Sigma) and 150 ng/ml Transferrin (Invitrogen). The plates may then be put on a Stovall Belly Button™ shaker in an atmospheric oxygen incubator. The media may be changed on day 2 of EB formation with NeuroEB-I and on day 4 with NeuroEB-II (NeuroEB-I plus 1 μg/ml mNoggin (R&D Systems, 614 McKinley Place N.E. Minneapolis, Minn. 55413)
Neuronal Precursor Selection and Expansion: On day 5 of EB formation, EBs may be dissociated with 0.05% Trypsin EDTA, and 4×10^6 cells/100 mm dish may then be plated on Laminin coated tissue culture dishes in NeuroEB-II-G418 medium that consisted of a base medium of a 1:1 mixture of D-MEM/F12 supplemented with N2 supplements and NeuroBasal Medium supplemented with B27(I ASSUME THIS IS THE VITAMIN) supplement and 0.1 mM L-Glutamine (all from Invitrogen). The base medium may then be supplemented with 10 ng/ml bFGF (Invitrogen), 1 μg/ml mNoggin, 500 ng/ml SHH-N (IS THIS SONIC HEDGEHOG FROM ProSpecBio Rehovot Science Park, P.O. BOX 398, Rehovot 76103, Israel), 100 ng/ml FGF-8b (R&D Systems), 1 μg/ml Laminin and 200 μg/ml G418 (Invitrogen) for selection of neuronal precursors expressing Sox-1. The plates may then be put in an incubator containing 2% oxygen and maintained in these conditions. During the 6-day selection period, the NeuroEB-II ([…]) media should be changed daily. On day 6, the surviving neuronal precursor foci may then be dissociated with 0.05% Trypsin EDTA and the cells plated at a density of 1.5×10^6 cells/100 mm Laminin coated dish in Neuroll ([…])-G418 medium. The cells may then be dissociated every other day for expansion, and prepared for cryopreservation at passage 3 or 4. The cryopreservation medium typically contains 50% KSR, 10% dimethyl sulfoxide (DMSO) (Sigma) and 40% Neurol([…])-G418 medium. Neuronal precursors may be cryopreserved at a concentration of 4×10^6 cells/ml and 1 ml/cryovial in a controlled rate freezer overnight then transferred to an ultra-low freezer or liquid nitrogen for long-term storage. […]

## CC(C)S(=O)(=O)N[C@H]1CCC[C@H]1Oc1ccc(-c2ccccc2C#N)cc1 [Example 5, N-{(1S,2R)-2-[(2′-cyanobiphenyl-4-yl)oxy]cyclopentyl}propane-2-sulfonamide]
  EC50: 535 nM
Title compound versus its enantiomer prepared from the (1R,2S) bromide
  potency compared with its enantiomer: significantly more potent than its enantiomer

## CC(C)S(=O)(=O)N[C@H]1CCC[C@H]1Oc1ccc(-c2ccc(C#N)s2)cc1 [Example 6, N-{(1S,2R)-2-[4-(5-cyano-2-thienyl)phenoxy]cyclopentyl}propane-2-sulfonamide]
  EC50: 1540 nM

## CC(C)S(=O)(=O)N[C@H]1CCCC[C@H]1Oc1ccc(-c2ccccc2C#N)cc1 [Example 7, N-{(1S,2R)-2-[(2′-cyanobiphenyl-4-yl)oxy]cyclohexyl}propane-2-sulfonamide]
  EC50: 157 nM
Title compound versus its enantiomer
  biological activity improved over that of its enantiomer: > 150 times

## CC(C)S(=O)(=O)N[C@H]1COC[C@H]1Oc1ccc(-c2ccc(O)cc2)cc1 [Example 18, N-{(3S,4S)-4-[(4′-hydroxybiphenyl-4-yl)oxy]tetra hydrofuran-3-yl}propane-2-sulfonamide]
  EC50: 1180 nM

## CCOc1cc(F)ccc1-c1ccc(O[C@@H]2COC[C@@H]2NS(=O)(=O)C(C)C)cc1 [Example 19, N-{(3S,4S)-4-[(2′-ethoxy-4′-fluorobiphenyl-4-yl)oxy]tetra hydrofuran-3-yl}propane-2-sulfonamide]
  EC50: 248 nM

## Cc1cc(F)ccc1-c1ccc(O[C@@H]2COC[C@@H]2NS(=O)(=O)C(C)C)cc1 [Example 20, N-{(3S,4S)-4-[(4′-fluoro-2′-methylbiphenyl-4-yl)oxy]tetra hydrofuran-3-yl}propane-2-sulfonamide]
  EC50: 729 nM

## CC(C)S(=O)(=O)N[C@H]1COC[C@H]1Oc1ccc(-c2ccc(F)cc2F)cc1 [Example 21, N-{(3S,4S)-4-[(2′,4′-difluorobiphenyl-4-yl)oxy]tetra hydrofuran-3-yl}propane-2-sulfonamide]
  EC50: 239 nM

## CC(C)S(=O)(=O)N[C@H]1COC[C@H]1Oc1ccc(-c2cncnc2)cc1 [Example 22, N-[(3S,4S)-4-(4-pyrimidin-5-ylphenoxy)tetrahydrofuran-3-yl]propane-2-sulfonamide]
  EC50: 861 nM

## CCOc1ccccc1-c1ccc(O[C@@H]2CCC[C@@H]2NS(=O)(=O)C(C)C)cc1 [Example 25, N-{(1S,2R)-2-[(2′-ethoxybiphenyl-4-yl)oxy]cyclopentyl} propane-2-sulfonamide]
  EC50: 2960 nM

## CC(C)S(=O)(=O)N[C@H]1CCC[C@H]1Oc1ccc(-c2ccccc2)cc1 [Example 26, N-[(1S,2R)-2-(biphenyl-4-yloxy)cyclopentyl] propane-2-sulfonamide]
  EC50: 1120 nM

## CC(C)S(=O)(=O)N[C@H]1CCC[C@H]1Oc1ccc(N2CCCC2)cc1 [Example 27, N-[(1S,2R)-2-(4-pyrrolidin-1-ylphenoxy)cyclopentyl] propane-2-sulfonamide]
  EC50: 857 nM

## CC(C)S(=O)(=O)N[C@H]1CCC[C@H]1Oc1ccc(-c2ccc(C(=O)O)cc2C#N)cc1 [Example 28, 2-cyano-4′-({(1R,2S)-2-[(isopropylsulfonyl)amino]cyclopentyl}oxy) biphenyl-4-carboxylic acid]
  EC50: 651 nM

## CC(C)S(=O)(=O)N[C@H]1CCC[C@H]1Oc1ccc(-c2ccccc2)c(F)c1 [Example 29, N-{(1S,2R)-2-[(2-fluorobiphenyl-4-yl)oxy]cyclopentyl} propane-2-sulfonamide]
  EC50: 521 nM

## CC(C)S(=O)(=O)N[C@H]1CCC[C@H]1Oc1ccc(-c2ccc(F)cc2C#N)c(F)c1 [Example 30, N-{(1S,2R)-2-[(2′-cyano-2,4′-difluorobiphenyl-4-yl)oxy]cyclopentyl}propane-2-sulfonamide]
  EC50: 349 nM

## CCOc1ccccc1-c1ccc(O[C@@H]2CCC[C@@H]2NS(=O)(=O)C(C)C)cc1F [Example 31, N-{(1S,2R)-2-[(2′-ethoxy-2-fluorobiphenyl-4-yl)oxy]cyclopentyl} propane-2-sulfonamide]
  EC50: 327 nM

## CC(C)S(=O)(=O)N[C@H]1CCC[C@H]1Oc1ccc(-c2ccc(C#N)s2)c(F)c1 [Example 32, N-{(1S,2R)-2-[4-(5-cyano-2-thienyl)-3-fluorophenoxy]cyclopentyl} propane-2-sulfonamide]
  EC50: 1400 nM

## CC(C)S(=O)(=O)N[C@H]1CCC[C@H]1Oc1ccc(-c2cccc(C(=O)NC3CC3)c2)c(F)c1 [Example 33, N-cyclopropyl-2′-fluoro-4′-({(1R,2S)-2-[(isopropylsulfonyl)amino]cyclopentyl}oxy) biphenyl-3-carboxamide]
  EC50: 623 nM

## CC(C)S(=O)(=O)N[C@H]1CCC[C@H]1Oc1ccc(-c2ccc(CCNS(C)(=O)=O)cc2)c(F)c1 [Example 34, N-{(1S,2R)-2-[(2-fluoro-4′-{2-[(methylsulfonyl)amino]ethyl}biphenyl-4-yl)oxy]cyclopentyl} propane-2-sulfonamide]
  EC50: 3220 nM

## CC(C)S(=O)(=O)N[C@H]1CCCC[C@H]1Oc1ccc(-c2ccccc2C#N)c(F)c1 [Example 35, N-{(1S,2R)-2-[(2′-cyano-2-fluorobiphenyl-4-yl)oxy]cyclohexyl} propane-2-sulfonamide]
  EC50: 525 nM

## CC(C)S(=O)(=O)N[C@H]1CCCC[C@H]1Oc1ccc(-c2ccc(F)cc2C#N)c(F)c1 [Example 36, N-{(1S,2R)-2-[(2′-cyano-2,4′-difluorobiphenyl-4-yl)oxy]cyclohexyl} propane-2-sulfonamide]
  EC50: 1610 nM

## CC(C)S(=O)(=O)N[C@H]1CCCC[C@H]1Oc1ccc(-c2ccc(C#N)s2)c(F)c1 [Example 37, N-{(1S,2R)-2-[4-(5-cyano-2-thienyl)-3-fluorophenoxy]cyclohexyl} propane-2-sulfonamide]
  EC50: 1720 nM

## CC(C)S(=O)(=O)N[C@H]1CCCC[C@H]1Oc1ccc(N2CCCC2)cc1 [Example 38, N-[(1S,2R)-2-(4-pyrrolidin-1-ylphenoxy)cyclohexyl] propane-2-sulfonamide]
  EC50: 327 nM

## CCOc1ccccc1-c1ccc(O[C@@H]2CCCC[C@@H]2NS(=O)(=O)C(C)C)cc1 [Example 39, N-{(1S,2R)-2-[(2′-ethoxybiphenyl-4-yl)oxy]cyclohexyl} propane-2-sulfonamide]
  EC50: 1420 nM

## CC(C)S(=O)(=O)N[C@H]1CCCC[C@H]1Oc1ccc(-c2ccccc2OCC(F)(F)F)nc1 [Example 40, N-[(1S,2R)-2-({6-[2-(2,2,2-trifluoroethoxy)phenyl]pyridin-3-yl}oxy)cyclohexyl] propane-2-sulfonamide]
  EC50: 148 nM

## CC(C)S(=O)(=O)N[C@H]1CCCC[C@H]1Oc1ccc(-c2ccccc2OC(F)(F)F)nc1 [Example 41, N-[(1S,2R)-2-({6-[2-(trifluoromethoxy)phenyl]pyridin-3-yl}oxy)cyclohexyl] propane-2-sulfonamide]
  EC50: 331 nM

## CC(C)S(=O)(=O)N[C@H]1CCCC[C@H]1Oc1ccc(-c2ccc(C#N)s2)nc1 [Example 42, N-[(1S,2R)-2-{[6-(5-cyano-2-thienylpyridin)-3-yl]oxy}cyclohexyl] propane-2-sulfonamide]
  EC50: 2780 nM

## CC(C)S(=O)(=O)N[C@H]1CCCC[C@H]1Oc1ccc(N2CCCCC2)cc1 [Example 54, N-[(1S,2R)-2-(4-piperidin-1-ylphenoxy)cyclohexyl]pro-pane-2-sulfonamide]
  EC50: 503 nM
